≈ marks a conversion by molar mass, not a printed value. Like-named read-outs stand apart in the source and are kept apart here.
Legend:
[1] = physchem; conditions: 25 °C, thermodynamic from solid
[2] = Oral bioavailability PK in dog; format: in vivo; conditions: dog (Beagle), oral gavage, solution vehicle 5% ethanol, 20% propylene glycol, 75% water; based on exposure of Intermediate 5 in plasma
Experimental: Oral dose (suspension and solution vehicle) of the compound being tested was administered via gavage in rat (Sprague Dawley) and dog (Beagle). Serial blood samples were collected via jugular vein into pre-chilled K2EDTA with 2 mM dichlorvos (final concentration) for up to 168h. Whole blood was processed into plasma by centrifuge (3000 rpm for 10 minutes at 5C) within 30 minutes of collection.
Plasma samples were analyzed by direct protein precipitation with acetonitrile and further dilution with water before injecting onto Sciex API 5500 LC/MS/MS system for analysis.
AUC was calculated as Area under the plasma concentration vs. time curve from 0 h to infinity.
The solution vehicles used were 1) 5% ethanol, 20% propylene glycol, and 75% water and 2) 30% 10 mM HCl, 5% ethanol, 45% polyethylene glycol 300, and 20% propylene glycol.

[3] = 0.1N HCl, 1.0% DMSO, 24-hour incubation at ambient temperature, maximum theoretical 100 μM, first value of the cell
[4] = 1×PBS buffer (pH 7.4), 1.0% DMSO, 24-hour incubation at ambient temperature, maximum theoretical 100 μM, second value of the cell

SMILES | pH 2 solubility (pH 2) | pH 7 solubility (pH 7.4) | solubility ([1]; fassif) [µg/mL] | solubility ([1]; fessif) [µg/mL] | pH 2 solubility [3] [μM] | pH 7 solubility [4] [μM] | Dog F % (solution) [2] [%]
CN(CCN(C)C(=O)N(c1nn(CC(F)(F)F)c2c(-c3ccc(C#CC(C)(C)S(C)(=O)=O)nc3[C@H](Cc3cc(F)cc(F)c3)NC(=O)Cn3nc(C(F)(F)F)c4c3C(F)(F)[C@@H]3C[C@H]43)ccc(Cl)c12)S(C)(=O)=O)C(=O)OCOP(=O)(O)O [Compound 83, (phosphonooxy)methyl (2-(3-(4-chloro-7-(2-((S)-1-(2-((3bS,4aR)-5,5-difluoro-3-(trifluoromethyl)-3b,4,4a,5-tetrahydro-1H-cyclopropa[3,4]cyclopenta[1,2-c]pyrazol-1-yl)acetamido)-2-(3,5-difluorophenyl)ethyl)-6-(3-methyl-3-(methylsulfonyl)but-1-yn-1-yl)pyridin-3-yl)-1-(2,2,2-trifluoroethyl)-1H-indazol-3-yl)-1-methyl-3-(methylsulfonyl)ureido)ethyl)(methyl)carbamate] | 1/61 μM | 1/61 μM | 1950 (≈ 1580 µM) | 500 (≈ 404 µM) |  |  | 
C[C@@H](C(=O)O)N(CCOC(=O)N(c1nn(CC(F)(F)F)c2c(-c3ccc(C#CC(C)(C)S(C)(=O)=O)nc3[C@H](Cc3cc(F)cc(F)c3)NC(=O)Cn3nc(C(F)(F)F)c4c3C(F)(F)[C@@H]3C[C@H]43)ccc(Cl)c12)S(C)(=O)=O)C(=O)OCOP(=O)(O)O [Compound 132, N-(2-(((4-chloro-7-(2-((S)-1-(2-((3bS,4aR)-5,5-difluoro-3-(trifluoromethyl)-3b,4,4a,5-tetrahydro-1H-cyclopropa[3,4]cyclopenta[1,2-c]pyrazol-1-yl)acetamido)-2-(3,5-difluorophenyl)ethyl)-6-(3-methyl-3-(methylsulfonyl)but-1-yn-1-yl)pyridin-3-yl)-1-(2,2,2-trifluoroethyl)-1H-indazol-3-yl)(methylsulfonyl)carbamoyl)oxy)ethyl)-N-(((phosphonooxy)methoxy)carbonyl)-L-alanine] |  |  | 1630 (≈ 1270 µM) |  | 1 | 79 | 
CN(Cc1ccccc1OP(=O)(O)O)C(=O)N(c1nn(CC(F)(F)F)c2c(-c3ccc(C#CC(C)(C)S(C)(=O)=O)nc3[C@H](Cc3cc(F)cc(F)c3)NC(=O)Cn3nc(C(F)(F)F)c4c3C(F)(F)[C@@H]3C[C@H]43)ccc(Cl)c12)S(C)(=O)=O [Compound 67, 2-((3-(4-chloro-7-(2-((S)-1-(2-((3bS,4aR)-5,5-difluoro-3-(trifluoromethyl)-3b,4,4a,5-tetrahydro-1H-cyclopropa[3,4]cyclopenta[1,2-c]pyrazol-1-yl)acetamido)-2-(3,5-difluorophenyl)ethyl)-6-(3-methyl-3-(methylsulfonyl)but-1-yn-1-yl)pyridin-3-yl)-1-(2,2,2-trifluoroethyl)-1H-indazol-3-yl)-1-methyl-3-(methylsulfonyl)ureido)methyl)phenyl dihydrogen phosphate] | 2/79 μM | 2/79 μM | 536 | 707 |  |  | 
CN(CC(=O)OCOP(=O)(O)O)C(=O)N(c1nn(CC(F)(F)F)c2c(-c3ccc(C#CC(C)(C)S(C)(=O)=O)nc3[C@H](Cc3cc(F)cc(F)c3)NC(=O)Cn3nc(C(F)(F)F)c4c3C(F)(F)[C@@H]3C[C@H]43)ccc(Cl)c12)S(C)(=O)=O [Compound 84, (phosphonooxy)methyl N-((4-chloro-7-(2-((S)-1-(2-((3bS,4aR)-5,5-difluoro-3-(trifluoromethyl)-3b,4,4a,5-tetrahydro-1H-cyclopropa[3,4]cyclopenta[1,2-c]pyrazol-1-yl)acetamido)-2-(3,5-difluorophenyl)ethyl)-6-(3-methyl-3-(methylsulfonyl)but-1-yn-1-yl)pyridin-3-yl)-1-(2,2,2-trifluoroethyl)-1H-indazol-3-yl)(methylsulfonyl)carbamoyl)-N-methylglycinate] |  |  | 154 (≈ 129 µM) |  | 5 | 16 | 
CC(C)(C#Cc1ccc(-c2ccc(Cl)c3c(NS(C)(=O)=O)nn(CC(F)(F)F)c23)c([C@H](Cc2cc(F)cc(F)c2)NC(=O)Cn2nc(C(F)(F)F)c3c2C(F)(F)[C@@H]2C[C@H]32)n1)S(C)(=O)=O [Intermediate 5, N—((S)-1-(3-(4-chloro-3-(methylsulfonamido)-1-(2,2,2-trifluoroethyl)-1H-indazol-7-yl)-6-(3-methyl-3-(methylsulfonyl)but-1-yn-1-yl)pyridin-2-yl)-2-(3,5-difluorophenyl)ethyl)-2-((3bS,4aR)-5,5-difluoro-3-(trifluoromethyl)-3b,4,4a,5-tetrahydro-1H-cyclopropa[3,4]cyclopenta[1,2-c]pyrazol-1-yl)acetamide, reference compound] |  |  |  |  | 0.11 | 0.32 | 16
CC(C)(C#Cc1ccc(-c2ccc(Cl)c3c(N(C(=O)OCCN(CCC(=O)O)C(=O)OCOP(=O)(O)O)S(C)(=O)=O)nn(CC(F)(F)F)c23)c([C@H](Cc2cc(F)cc(F)c2)NC(=O)Cn2nc(C(F)(F)F)c3c2C(F)(F)[C@@H]2C[C@H]32)n1)S(C)(=O)=O [Compound 135, 3-((2-(((4-chloro-7-(2-((S)-1-(2-((3bS,4aR)-5,5-difluoro-3-(trifluoromethyl)-3b,4,4a,5-tetrahydro-1H-cyclopropa[3,4]cyclopenta[1,2-c]pyrazol-1-yl)acetamido)-2-(3,5-difluorophenyl)ethyl)-6-(3-methyl-3-(methylsulfonyl)but-1-yn-1-yl)pyridin-3-yl)-1-(2,2,2-trifluoroethyl)-1H-indazol-3-yl)(methylsulfonyl)carbamoyl)oxy)ethyl)(((phosphonooxy)methoxy)carbonyl)amino)propa noic acid] |  |  | 1290 (≈ 1010 µM) |  | 1 | 100 | 
CC(C)(C#Cc1ccc(-c2ccc(Cl)c3c(N(C(=O)OCCNC(=O)OCOP(=O)(O)O)S(C)(=O)=O)nn(CC(F)(F)F)c23)c([C@H](Cc2cc(F)cc(F)c2)NC(=O)Cn2nc(C(F)(F)F)c3c2C(F)(F)[C@@H]2C[C@H]32)n1)S(C)(=O)=O [Compound 137, 2-((((phosphonooxy)methoxy)carbonyl)amino)ethyl (4-chloro-7-(2-((S)-1-(2-((3bS,4aR)-5,5-difluoro-3-(trifluoromethyl)-3b,4,4a,5-tetrahydro-1H-cyclopropa[3,4]cyclopenta[1,2-c]pyrazol-1-yl)acetamido)-2-(3,5-difluorophenyl)ethyl)-6-(3-methyl-3-(methylsulfonyl)but-1-yn-1-yl)pyridin-3-yl)-1-(2,2,2-trifluoroethyl)-1H-indazol-3-yl)(methylsulfonyl)carbamate] |  |  | 950 (≈ 786 µM) |  | 1 | 85 | 
CN(CCOC(=O)N(c1nn(CC(F)(F)F)c2c(-c3ccc(C#CC(C)(C)S(C)(=O)=O)nc3[C@H](Cc3cc(F)cc(F)c3)NC(=O)Cn3nc(C(F)(F)F)c4c3C(F)(F)[C@@H]3C[C@H]43)ccc(Cl)c12)S(C)(=O)=O)C(=O)OCOP(=O)(O)O [Compound 133, (phosphonooxy)methyl (2-(((4-chloro-7-(2-((S)-1-(2-((3bS,4aR)-5,5-difluoro-3-(trifluoromethyl)-3b,4,4a,5-tetrahydro-1H-cyclopropa[3,4]cyclopenta[1,2-c]pyrazol-1-yl)acetamido)-2-(3,5-difluorophenyl)ethyl)-6-(3-methyl-3-(methylsulfonyl)but-1-yn-1-yl)pyridin-3-yl)-1-(2,2,2-trifluoroethyl)-1H-indazol-3-yl)(methylsulfonyl)carbamoyl)oxy)ethyl)(methyl)carbamate] |  |  | 194 (≈ 159 µM) |  | 1 | 81 | 
CC(C)(C#Cc1ccc(-c2ccc(Cl)c3c(N(C(=O)OCCN(CC(=O)O)C(=O)OCOP(=O)(O)O)S(C)(=O)=O)nn(CC(F)(F)F)c23)c([C@H](Cc2cc(F)cc(F)c2)NC(=O)Cn2nc(C(F)(F)F)c3c2C(F)(F)[C@@H]2C[C@H]32)n1)S(C)(=O)=O [Compound 134] |  |  | 2640 (≈ 2080 µM) |  | 1 | 100 | 
CC(C)(C#Cc1ccc(-c2ccc(Cl)c3c(N(C(=O)NCCP(=O)(O)O)S(C)(=O)=O)nn(CC(F)(F)F)c23)c([C@H](Cc2cc(F)cc(F)c2)NC(=O)Cn2nc(C(F)(F)F)c3c2C(F)(F)[C@@H]2C[C@H]32)n1)S(C)(=O)=O [Compound 54, (2-(3-(4-chloro-7-(2-((S)-1-(2-((3bS,4aR)-5,5-difluoro-3-(trifluoromethyl)-3b,4,4a,5-tetrahydro-1H-cyclopropa[3,4]cyclopenta[1,2-c]pyrazol-1-yl)acetamido)-2-(3,5-difluorophenyl)ethyl)-6-(3-methyl-3-(methylsulfonyl)but-1-yn-1-yl)pyridin-3-yl)-1-(2,2,2-trifluoroethyl)-1H-indazol-3-yl)-3-(methylsulfonyl)ureido)ethyl)phosphonic acid] |  |  | 416 (≈ 372 µM) |  | 1 | 41 | 
